The numbers were not newly measured in patent US11111208B2, “Process for the preparation of safinamide mesylate intermediate” (RK Pharma Solutions LLC, priority 2019, dated 2021), which cites them from elsewhere.

Counter-ions that a name gives are not always drawn. Like-named read-outs stand apart in the source and are kept apart here.

Test in data set [1]: not given
The source holds these as a separate data set.

By solubility is commonly meant the dissolved amount per volume that the medium holds. As for `C[C@H](NCc1ccc(OCc2cccc(F)c2)cc1)C(N)=O` [Safinamide mesylate, (S)-2-[[4-[(3-fluorophenyl)methoxy]phenyl]methyl]aminopropanamide methanesulfonate (1:1)], the solubility entry (aqueous buffer pH 1.2) is “highly soluble”; the solubility result (aqueous buffer pH 4.5) is recorded as “highly soluble”; the solubility (aqueous buffer pH 6.8) was less than 400 µg/mL; the solubility (aqueous buffer pH 7.5) is less than 400 µg/mL; the solubility entry in data set [1] (in dimethyl sulfoxide) is “freely soluble”; the solubility entry in data set [1] (in ethanol) was “sparingly soluble”. For the same compound, the solubility result is listed as “practically insoluble” in data set [1] (in ethyl acetate), “freely soluble” in data set [1] (in methanol) and “freely soluble” in data set [1] (in water).

Consider `C[C@H](NCc1ccc(OCc2cccc(F)c2)cc1)C(N)=O` [Safinamide, (S)-2-[4-(3-fluorobenzyloxy)-benzylamino]propanamide], for which the “neuroprotective and neurorescuing effects” value with gerbil ischemia model is “neuroprotective and neurorescuing effects”; with rat kainic acid model it was “neuroprotective and neurorescuing effects”; in the data set with MPTP-treated mice, “neuroprotective and neurorescuing effects”.
